Tests used:
[1] = target: 5-hydroxytryptamine receptor 2B (Homo sapiens, UniProt P41595); assay type: functional, cell-based
[2] = target: T1, Alpha-1A adrenergic receptor (Homo sapiens, UniProt P35348); assay type: functional, cell-based
T1 sequence (P35348 whole entry): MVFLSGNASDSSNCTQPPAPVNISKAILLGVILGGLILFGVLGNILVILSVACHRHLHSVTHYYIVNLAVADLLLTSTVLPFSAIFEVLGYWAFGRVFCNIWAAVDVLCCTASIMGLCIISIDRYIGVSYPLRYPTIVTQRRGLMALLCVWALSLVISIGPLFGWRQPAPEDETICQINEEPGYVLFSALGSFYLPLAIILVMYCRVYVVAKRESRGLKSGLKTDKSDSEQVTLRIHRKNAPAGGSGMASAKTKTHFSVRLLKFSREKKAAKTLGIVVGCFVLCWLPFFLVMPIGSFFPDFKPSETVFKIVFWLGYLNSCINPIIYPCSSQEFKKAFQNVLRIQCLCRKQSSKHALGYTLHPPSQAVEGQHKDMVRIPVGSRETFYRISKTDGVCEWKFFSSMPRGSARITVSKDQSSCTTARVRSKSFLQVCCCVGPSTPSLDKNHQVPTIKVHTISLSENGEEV

[3] = target: Vascular endothelial growth factor receptor 2 (Homo sapiens, UniProt P35968); assay type: functional
Chain of Vascular endothelial growth factor receptor 2 (P35968 whole entry): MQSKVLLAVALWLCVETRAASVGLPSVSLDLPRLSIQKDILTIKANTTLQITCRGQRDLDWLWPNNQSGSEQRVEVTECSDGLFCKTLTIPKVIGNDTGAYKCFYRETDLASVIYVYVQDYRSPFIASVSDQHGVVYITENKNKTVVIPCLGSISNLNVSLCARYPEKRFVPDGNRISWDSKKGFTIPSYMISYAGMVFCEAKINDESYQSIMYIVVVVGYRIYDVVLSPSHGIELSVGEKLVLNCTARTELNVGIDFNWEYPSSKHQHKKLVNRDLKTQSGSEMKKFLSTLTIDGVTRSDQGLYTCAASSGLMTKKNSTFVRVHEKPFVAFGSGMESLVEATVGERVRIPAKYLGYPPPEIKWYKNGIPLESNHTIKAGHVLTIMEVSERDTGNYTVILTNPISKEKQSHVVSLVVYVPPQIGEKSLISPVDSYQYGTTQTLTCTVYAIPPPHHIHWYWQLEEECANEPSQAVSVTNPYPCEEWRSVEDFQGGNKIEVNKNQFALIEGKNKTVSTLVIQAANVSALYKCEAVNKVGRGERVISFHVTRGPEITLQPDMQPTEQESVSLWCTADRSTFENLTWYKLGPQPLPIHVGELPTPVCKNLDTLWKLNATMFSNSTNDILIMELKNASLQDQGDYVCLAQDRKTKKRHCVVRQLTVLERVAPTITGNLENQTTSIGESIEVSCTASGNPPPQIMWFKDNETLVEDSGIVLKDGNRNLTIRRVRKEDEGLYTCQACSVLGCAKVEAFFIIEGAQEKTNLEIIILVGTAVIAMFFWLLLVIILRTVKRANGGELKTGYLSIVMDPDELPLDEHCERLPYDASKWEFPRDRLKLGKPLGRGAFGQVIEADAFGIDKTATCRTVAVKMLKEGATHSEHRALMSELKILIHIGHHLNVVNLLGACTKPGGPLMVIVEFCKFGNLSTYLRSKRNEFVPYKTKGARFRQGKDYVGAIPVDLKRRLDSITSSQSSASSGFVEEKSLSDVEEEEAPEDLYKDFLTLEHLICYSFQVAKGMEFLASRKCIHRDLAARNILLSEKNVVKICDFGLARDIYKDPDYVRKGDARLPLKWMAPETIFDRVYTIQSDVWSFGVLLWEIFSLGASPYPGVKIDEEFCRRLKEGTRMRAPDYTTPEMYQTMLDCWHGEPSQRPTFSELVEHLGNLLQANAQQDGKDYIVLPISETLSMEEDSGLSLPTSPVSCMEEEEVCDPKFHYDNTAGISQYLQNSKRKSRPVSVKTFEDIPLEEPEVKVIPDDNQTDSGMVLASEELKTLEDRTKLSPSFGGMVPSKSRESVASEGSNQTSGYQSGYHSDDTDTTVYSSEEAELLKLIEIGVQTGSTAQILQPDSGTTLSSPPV

Thromboxane A2 receptor [4] = target: T2, Thromboxane A2 receptor (Homo sapiens, UniProt P21731); assay type: functional, cell-based
T2 sequence (P21731 whole entry): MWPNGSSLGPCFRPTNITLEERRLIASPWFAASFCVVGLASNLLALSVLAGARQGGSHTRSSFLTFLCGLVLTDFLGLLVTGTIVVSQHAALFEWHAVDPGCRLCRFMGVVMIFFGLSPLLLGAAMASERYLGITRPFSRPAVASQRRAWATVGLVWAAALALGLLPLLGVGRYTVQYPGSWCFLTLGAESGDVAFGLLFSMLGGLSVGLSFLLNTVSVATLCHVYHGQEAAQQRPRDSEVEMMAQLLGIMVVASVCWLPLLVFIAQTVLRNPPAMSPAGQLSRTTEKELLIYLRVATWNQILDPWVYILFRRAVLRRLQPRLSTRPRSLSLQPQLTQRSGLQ

Estrogen receptor = target: T3, Estrogen receptor (Homo sapiens, UniProt P03372)
T3 sequence (P03372 whole entry): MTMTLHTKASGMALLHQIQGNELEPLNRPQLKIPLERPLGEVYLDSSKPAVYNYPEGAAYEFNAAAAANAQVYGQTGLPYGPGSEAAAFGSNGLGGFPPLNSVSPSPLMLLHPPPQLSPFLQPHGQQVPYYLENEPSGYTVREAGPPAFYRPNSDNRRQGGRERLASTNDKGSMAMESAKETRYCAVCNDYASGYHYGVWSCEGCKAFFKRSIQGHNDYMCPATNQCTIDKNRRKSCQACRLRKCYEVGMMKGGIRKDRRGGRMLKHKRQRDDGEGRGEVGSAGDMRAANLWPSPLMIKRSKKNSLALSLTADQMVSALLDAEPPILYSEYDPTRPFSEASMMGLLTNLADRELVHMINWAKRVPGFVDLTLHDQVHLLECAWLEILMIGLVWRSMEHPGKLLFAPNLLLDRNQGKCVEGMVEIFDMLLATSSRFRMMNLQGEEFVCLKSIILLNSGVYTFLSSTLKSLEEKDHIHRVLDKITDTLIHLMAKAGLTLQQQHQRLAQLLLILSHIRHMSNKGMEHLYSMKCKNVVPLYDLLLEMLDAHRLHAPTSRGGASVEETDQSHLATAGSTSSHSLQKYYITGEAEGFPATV

Thromboxane A2 receptor [5] = target: T2, Thromboxane A2 receptor; assay type: functional, cell-based; remark: listed apart in the source
D(1A) dopamine receptor = D(1A) dopamine receptor (Homo sapiens, UniProt P21728)
Chain of D(1A) dopamine receptor (P21728 whole entry): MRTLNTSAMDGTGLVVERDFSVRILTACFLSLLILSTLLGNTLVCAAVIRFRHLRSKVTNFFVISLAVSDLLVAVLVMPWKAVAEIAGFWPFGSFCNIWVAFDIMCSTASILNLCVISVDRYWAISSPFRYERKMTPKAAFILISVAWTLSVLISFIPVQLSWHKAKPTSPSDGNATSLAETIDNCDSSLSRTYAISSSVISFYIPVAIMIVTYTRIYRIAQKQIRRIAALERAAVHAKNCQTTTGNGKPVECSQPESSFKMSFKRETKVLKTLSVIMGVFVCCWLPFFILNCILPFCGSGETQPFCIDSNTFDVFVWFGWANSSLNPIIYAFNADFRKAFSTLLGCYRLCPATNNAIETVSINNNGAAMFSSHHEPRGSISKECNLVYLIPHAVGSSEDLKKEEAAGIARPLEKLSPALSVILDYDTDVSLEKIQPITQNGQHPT

[6] = target: Sodium-dependent noradrenaline transporter (Homo sapiens, UniProt P23975)
Chain of Sodium-dependent noradrenaline transporter (P23975 whole entry): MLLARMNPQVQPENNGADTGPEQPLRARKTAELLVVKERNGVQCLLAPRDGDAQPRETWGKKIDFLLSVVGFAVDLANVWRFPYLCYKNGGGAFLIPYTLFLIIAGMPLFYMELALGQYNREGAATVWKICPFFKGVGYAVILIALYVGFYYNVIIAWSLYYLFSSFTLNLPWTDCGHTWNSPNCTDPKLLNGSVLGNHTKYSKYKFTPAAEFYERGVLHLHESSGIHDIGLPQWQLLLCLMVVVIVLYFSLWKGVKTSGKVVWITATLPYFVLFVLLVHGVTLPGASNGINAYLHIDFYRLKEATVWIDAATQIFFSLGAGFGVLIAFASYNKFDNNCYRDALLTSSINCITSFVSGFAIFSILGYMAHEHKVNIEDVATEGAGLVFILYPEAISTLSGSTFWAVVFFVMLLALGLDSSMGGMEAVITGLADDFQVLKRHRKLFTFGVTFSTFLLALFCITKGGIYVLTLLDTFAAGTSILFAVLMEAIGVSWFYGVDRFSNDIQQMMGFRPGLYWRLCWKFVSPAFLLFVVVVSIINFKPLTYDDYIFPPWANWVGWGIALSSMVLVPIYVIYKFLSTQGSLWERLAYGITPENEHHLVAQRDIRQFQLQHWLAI

[7] = target: 3',5'-cyclic-AMP phosphodiesterase 4A (Homo sapiens, UniProt P27815); assay type: functional
Chain of 3',5'-cyclic-AMP phosphodiesterase 4A (P27815 whole entry): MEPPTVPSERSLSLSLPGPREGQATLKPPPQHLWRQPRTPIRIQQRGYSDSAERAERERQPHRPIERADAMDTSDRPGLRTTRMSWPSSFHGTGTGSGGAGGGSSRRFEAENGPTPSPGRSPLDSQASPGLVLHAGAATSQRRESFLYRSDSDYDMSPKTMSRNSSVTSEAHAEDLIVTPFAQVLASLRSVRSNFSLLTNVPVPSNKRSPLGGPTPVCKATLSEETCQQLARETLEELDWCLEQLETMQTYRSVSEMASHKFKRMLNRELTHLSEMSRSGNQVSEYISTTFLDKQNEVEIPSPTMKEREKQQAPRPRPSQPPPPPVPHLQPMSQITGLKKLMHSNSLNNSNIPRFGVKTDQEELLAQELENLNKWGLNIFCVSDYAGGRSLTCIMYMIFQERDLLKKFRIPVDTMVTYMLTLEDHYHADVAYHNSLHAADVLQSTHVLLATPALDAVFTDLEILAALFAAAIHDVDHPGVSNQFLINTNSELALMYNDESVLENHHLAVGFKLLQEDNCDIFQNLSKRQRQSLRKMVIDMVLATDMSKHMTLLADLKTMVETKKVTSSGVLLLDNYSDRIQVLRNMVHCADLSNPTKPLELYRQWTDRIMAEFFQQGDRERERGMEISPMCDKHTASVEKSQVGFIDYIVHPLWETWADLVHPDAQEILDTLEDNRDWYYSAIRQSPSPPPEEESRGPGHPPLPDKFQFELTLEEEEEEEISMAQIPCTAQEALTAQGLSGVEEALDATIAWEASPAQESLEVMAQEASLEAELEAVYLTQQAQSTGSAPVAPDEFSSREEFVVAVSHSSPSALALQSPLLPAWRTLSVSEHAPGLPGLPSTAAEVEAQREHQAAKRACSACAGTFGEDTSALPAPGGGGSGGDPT

[8] = target: T4, Alpha-2A adrenergic receptor (Homo sapiens, UniProt P08913)
T4 sequence (P08913 whole entry): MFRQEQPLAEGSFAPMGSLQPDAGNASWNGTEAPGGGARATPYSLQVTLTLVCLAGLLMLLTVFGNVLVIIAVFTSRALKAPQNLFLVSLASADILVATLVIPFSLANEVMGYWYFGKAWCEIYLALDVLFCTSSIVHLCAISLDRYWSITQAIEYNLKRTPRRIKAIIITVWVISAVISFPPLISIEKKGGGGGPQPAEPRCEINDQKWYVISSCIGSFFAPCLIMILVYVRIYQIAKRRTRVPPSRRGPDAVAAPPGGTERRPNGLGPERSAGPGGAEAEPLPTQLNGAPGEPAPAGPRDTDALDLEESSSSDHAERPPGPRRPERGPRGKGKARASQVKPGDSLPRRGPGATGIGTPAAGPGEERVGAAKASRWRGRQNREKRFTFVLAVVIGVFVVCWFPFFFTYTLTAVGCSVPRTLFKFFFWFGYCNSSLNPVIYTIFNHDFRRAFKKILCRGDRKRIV

[9] = target: T5, Amine oxidase [flavin-containing] A (Homo sapiens, UniProt P21397); assay type: functional
T5 sequence (P21397 whole entry): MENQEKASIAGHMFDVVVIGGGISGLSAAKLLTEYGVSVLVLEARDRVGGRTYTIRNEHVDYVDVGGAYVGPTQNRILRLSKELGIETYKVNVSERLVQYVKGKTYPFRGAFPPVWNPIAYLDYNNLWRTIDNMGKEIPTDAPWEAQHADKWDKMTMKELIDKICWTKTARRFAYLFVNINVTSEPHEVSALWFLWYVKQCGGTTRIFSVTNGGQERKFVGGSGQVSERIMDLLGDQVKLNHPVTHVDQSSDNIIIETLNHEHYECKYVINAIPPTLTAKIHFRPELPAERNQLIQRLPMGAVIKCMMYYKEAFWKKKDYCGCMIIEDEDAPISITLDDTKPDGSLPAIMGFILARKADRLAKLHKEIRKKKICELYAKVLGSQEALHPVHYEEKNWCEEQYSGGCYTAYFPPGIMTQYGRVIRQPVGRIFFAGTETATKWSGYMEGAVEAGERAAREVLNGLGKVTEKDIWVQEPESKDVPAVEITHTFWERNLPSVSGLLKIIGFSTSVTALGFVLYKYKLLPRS

D(3) dopamine receptor = D(3) dopamine receptor (Homo sapiens, UniProt P35462)
Chain of D(3) dopamine receptor (P35462 whole entry): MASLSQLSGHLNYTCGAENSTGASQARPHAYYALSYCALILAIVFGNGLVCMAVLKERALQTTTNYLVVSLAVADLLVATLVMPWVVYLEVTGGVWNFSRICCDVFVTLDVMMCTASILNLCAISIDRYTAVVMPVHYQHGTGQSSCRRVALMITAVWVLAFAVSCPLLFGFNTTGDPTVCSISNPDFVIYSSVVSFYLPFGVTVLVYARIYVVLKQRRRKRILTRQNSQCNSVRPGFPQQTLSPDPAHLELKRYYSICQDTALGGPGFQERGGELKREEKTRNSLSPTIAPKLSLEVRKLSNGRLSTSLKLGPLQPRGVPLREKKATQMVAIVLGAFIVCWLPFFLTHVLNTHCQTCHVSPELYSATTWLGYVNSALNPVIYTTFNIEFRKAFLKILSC
Further: assay procedure not described here.

Chain of 5-hydroxytryptamine receptor 2B (P41595 whole entry): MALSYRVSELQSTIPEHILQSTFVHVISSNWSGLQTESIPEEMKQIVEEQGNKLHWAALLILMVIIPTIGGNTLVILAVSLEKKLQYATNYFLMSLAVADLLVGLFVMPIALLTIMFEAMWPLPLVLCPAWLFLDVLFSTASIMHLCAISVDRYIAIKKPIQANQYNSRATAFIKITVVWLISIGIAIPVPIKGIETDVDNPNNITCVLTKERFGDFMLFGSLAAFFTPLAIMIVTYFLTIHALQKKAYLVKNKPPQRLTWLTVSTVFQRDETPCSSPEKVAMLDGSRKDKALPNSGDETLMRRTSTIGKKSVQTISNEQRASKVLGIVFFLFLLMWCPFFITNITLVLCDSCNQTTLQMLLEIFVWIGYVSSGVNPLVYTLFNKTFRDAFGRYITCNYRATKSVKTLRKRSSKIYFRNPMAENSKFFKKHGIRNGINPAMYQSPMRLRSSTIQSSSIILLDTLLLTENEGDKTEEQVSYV

Row | Structure (SMILES) | AC50 [1] [µM] | AC50 [2] [µM] | AC50 [3] [µM] | AC50 (Thromboxane A2 receptor [4]) [µM] | AC50 (Estrogen receptor) [µM] | AC50 (Thromboxane A2 receptor [5]) [µM] | AC50 (D(1A) dopamine receptor) [µM] | AC50 [6] [µM] | AC50 [7] [µM] | AC50 [8] [µM] | AC50 [9] [µM] | AC50 (D(3) dopamine receptor) [µM]
1 | C[C@@H]1O[C@@H](O[C@H]2C[C@@H](O)[C@]3(CO)[C@H]4[C@H](O)C[C@]5(C)[C@@H](C6=CC(=O)OC6)CC[C@]5(O)[C@@H]4CC[C@]3(O)C2)[C@H](O)[C@H](O)[C@H]1O [OUABAIN] | > 30 | > 30 | > 30 | > 30 | > 30 | > 30 | > 30 | > 30 | > 30 | > 30 | > 30 | > 30
2 | CCOc1ccc(Cc2nccc3cc(OCC)c(OCC)cc23)cc1OCC [ETHAVERINE] | > 30 | 9.55 | > 30 | > 30 | > 30 | 14.1 | 8.59 | > 30 | 0.466 | 20.9 | > 30 | 25.5
3 | Cc1c(C(C)C)c(=O)n(-c2ccccc2)n1C [PROPYPHENAZONE] | > 30 | > 30 | > 30 | > 30 | > 30 | > 30 | > 30 | > 30 | > 30 | > 30 | > 30 | > 30
4 | CC1(C)S[C@@H]2[C@H](NC(=O)[C@H](NC(=O)c3cnc4cccnc4c3O)c3ccccc3)C(=O)N2[C@H]1C(=O)O [APALCILLIN] | > 30 | > 30 | > 30 | > 30 | > 30 | > 30 | > 30 | > 30 | > 30 | > 30 | > 30 | > 30
5 | CCCCC(=O)O[C@H]1CC[C@H]2[C@@H]3CCc4cc(O)ccc4[C@H]3CC[C@]12C [ESTRADIOL VALERATE] | > 30 | > 30 | > 30 | > 30 | 0.0822 | 23.1 | > 30 | > 30 | > 10 | > 30 | > 30 | > 30
6 | COCC(=O)O[C@]1(CCN(C)CCCc2nc3ccccc3[nH]2)CCc2cc(F)ccc2[C@@H]1C(C)C [MIBEFRADIL] | > 30 | 1.58 | > 30 | 21.9 | > 30 | > 3 | 10.1 | 20.2 | > 30 | 23.4 | > 30 | 0.825
7 | COC(=O)N(C)c1c(N)nc(-c2nn(Cc3ccccc3F)c3ncccc23)nc1N [RIOCIGUAT] | > 30 | > 30 | > 30 | > 30 | > 30 | > 30 | > 30 | > 30 | > 30 | > 30 | > 30 | > 30
8 | CC(C)=CCC/C(C)=C/CC/C(C)=C/CC/C(C)=C/CC1=C(C)C(=O)c2ccccc2C1=O [MENATETRENONE] | > 30 | > 30 | > 30 | > 30 | > 30 | > 30 | > 30 | > 30 | 8.53 | > 10 | > 30 | 2.91
9 | CO[C@H]1/C=C/O[C@@]2(C)Oc3c(C)c(O)c4c(c3C2=O)C2=NC3(CCN(CC(C)C)CC3)NC2=C(NC(=O)/C(C)=C\C=C\[C@H](C)[C@H](O)[C@@H](C)[C@@H](O)[C@@H](C)[C@H](OC(C)=O)[C@@H]1C)C4=O [RIFABUTIN] | > 30 | > 30 | > 30 | > 30 | > 30 | > 30 | > 30 | > 30 | > 30 | > 30 | > 30 | > 30
10 | OCc1ccccc1 [BENZYL ALCOHOL] | > 30 | > 30 | > 30 | > 30 | > 30 | > 30 | > 30 | > 30 | > 30 | > 30 | > 30 | > 30
11 | [H]/N=C(/N)NS(=O)(=O)c1ccc(N)cc1 [SULFAGUANIDINE] | > 30 | > 30 | > 30 | > 30 | > 30 | > 30 | > 30 | > 30 | > 30 | > 30 | > 30 | > 30
12 | CC(C)N1CCOC(c2cccc(C(F)(F)F)c2)C1 (stereo not drawn) [OXAFLOZANE] | 1.01 | > 30 | > 30 | > 30 | > 30 | > 30 | > 30 | > 30 | > 30 | > 30 | > 30 | 1.65
13 | Cc1cnc(C(=O)O)c[n+]1[O-] [ACIPIMOX] | > 30 | > 30 | > 30 | > 30 | > 30 | > 30 | > 30 | > 30 | > 30 | > 30 | > 30 | > 30
14 | Cc1ccc(Cl)c(Nc2ccccc2C(=O)O)c1Cl [MECLOFENAMIC ACID] | > 30 | > 30 | > 30 | > 30 | > 30 | 20 | > 30 | > 30 | 25.5 | > 30 | > 30 | > 30

From ChEMBL document CHEMBL5291721, “A preclinical secondary pharmacology resource illuminates target-adverse drug reaction associations of marketed drugs” (Nat Commun, 2023)
